Experimental findings from US7247644B2, “Ester derivatives of a decahydroisoquinoline-3-carboxylic acid as analgestics” (Eli Lilly and Company, priority 2003, dated 2007) are described below.

What all share (type): in vivo
Data set [1] in a line: Bioavailability in Rats: plasma concentrations of parent acid by LC/MS/MS. As to conditions: male, rat, iv; Compound A in plasma, Fischer rats, 10 mg/kg. As for the experimental part: (§1) Percent bioavailability is determined using the following equation:
(§2) [formula] wherein AUC represents the area under the curve, p.o. represents oral dose, and i.v. represents intravenous dose. Bioavailability in Dogs:
Male Fischer Rats are administered either an oral or iv dose of (3S,[…])-6-[2-(1(2)H-tetrazole-5-yl)ethyl-1,2,3,4,4a,5,6,7,8,8a-decahydroisoquinoline-3-carboxylic acid (10 mg/Kg) to determine oral bioavailability. A separate group of rats are administered an oral 10 mg/kg dose of an ester prodrug (for example (3S,4aR,6R,8aR)-6-[2-(1(2)H-tetrazole-5-yl)ethyl-1,2,3,4,4a,5,6,7,8,8a-decahydroisoquinoline-3-carboxylic acid ethyl ester, HCL salt) to determine whether the prodrug would increase bioavailability of the parent acid. The plasma concentrations of (3S,4aR,6R,8aR)-6-[2-(1(2)H-tetrazole-5-yl)ethyl-1,2,3,4,4a,5,6,7,8,8a-decahydroisoquinoline-3-carboxylic acid are determined by LC/MS/MS.

The nature of data set [2]: Bioavailability in Cynomolgus Monkeys: plasma concentrations of parent acid by LC/MS/MS. As to conditions: both sexes, cynomolgus monkey, iv, 0.3 mg/kg, Compound A in plasma, .3 mg/kg. As for the experimental part: as §1, §2
Two male and two female monkeys are administered an oral, and later, an iv dose of (3S,4aR,6R,8aR)-6-[2-(1(2)H-tetrazole-5-yl)ethyl-1,2,3,4,4a,5,6,7,8,8a-decahydroisoquinoline-3-carboxylic acid (oral: 3 mg/kg; iv: 0.3 mg/kg) to determine oral bioavailability. The same animals are also subsequently administered an oral 3 mg/kg dose of (3S,4aR,6R,8aR)-6-[2-(1(2)H-tetrazole-5-yl)ethyl-1,2,3,4,4a,5,6,7,8,8a-decahydroisoquinoline-3-carboxylic acid ethyl ester to determine if the ester prodrug form increases bioavailability of the parent acid. The plasma concentrations of the parent acid are determined by LC/MS/MS.
Four cynomolgus monkeys (2/sex) are given a single oral dose of (3S,4aR,6R,8aR)-6-[2-(1(2)H-tetrazole-5-yl)ethyl-1,2,3,4,4a,5,6,7,8,8a-decahydroisoquinoline-3-carboxylic acid (3 mg/kg) on day 0, a single iv dose of (3S,4aR,6R,8aR)-6-[2-(1(2)H-tetrazole-5-yl)ethyl-1,2,3,4,4a,5,6,7,8,8a-decahydroisoquinoline-3-carboxylic acid (0.3 mg/kg) on day 4 and a single oral dose of (3S,4aR,6R,8aR)-6-[2-(1(2)H-tetrazole-5-yl)ethyl-1,2,3,4,4a,5,6,7,8,8a-decahydroisoquinoline-3-carboxylic acid ethyl ester (3 mg/kg) on day 8. […]

The nature of data set [3]: Bioavailability in Dogs: plasma concentrations of parent acid by LC/MS/MS. Conditions: both sexes, dog, iv; Compound A in plasma, Beagle dogs, 1 mg/kg. As for the experimental part: as §1, §2
Beagle dogs (2 male and 1 female) are administered an oral dose, and later an iv dose of (3S,4aR,6R,8aR)-6-[2-(1(2)H-tetrazole-5-yl)ethyl-1,2,3,4,4a,5,6,7,8,8a-decahydroisoquinoline-3-carboxylic acid (10 mg/Kg p.o; 1 mg/Kg i.v.) to determine oral bioavailability. Subsequently, the same three dogs are administered an oral 10 mg/kg dose of an ester prodrug (for example (3S,4aR,6R,8aR)-6-[2-(1(2)H-tetrazole-5-yl)ethyl-1,2,3,4,4a,5,6,7,8,8a-decahydroisoquinoline-3-carboxylic acid ethyl ester, HCL salt) to determine whether the prodrug would increase bioavailability of the parent acid. The plasma concentrations of (3S,4aR,6R,8aR)-6-[2-(1(2)H-tetrazole-5-yl)ethyl-1,2,3,4,4a,5,6,7,8,8a-decahydroisoquinoline-3-carboxylic acid are determined by LC/MS/MS.
Live Phase: (3S,4aR,6R,8aR)-6-[2-(1(2)H-tetrazole-5-yl)ethyl-1,2,3,4,4a,5,6,7,8,8a-decahydroisoquinoline-3-carboxylic acid (HCl salt) is dissolved in dilute sodium hydroxide for oral administration (30 mg/ml) and in 10% ethanol/water for iv administration (10 mg/ml). […]

What is called AUC is concentration integrated over time. The term Cmax denotes the highest concentration seen after dosing. Turning to `O=C(O)[C@@H]1C[C@H]2C[C@@H](CCc3nn[nH]n3)CC[C@H]2CN1` [Compound A], the exposure (AUC) is 6730 ng·h/mL in data set [1], 1080 ng·h/mL in data set [2] and 4220 ng·h/mL in data set [3]. Moreover, the Cmax in data set [1] worked out at 11000 ng/mL; in data set [2], 1620 ng/mL; in data set [3], 2820 ng/mL.
